Test results from patent US20060111335A1, “Photoactivated anti-viral and anti-cancer agent” (priority 2002, published 2006).

Tests used:
[1] = system: SINV genomic RNA; assay: Immunofluorescence assay for SINV capsid protein translated from irradiated viral RNA in BHK cells; format: cell-based, Sindbis virus; conditions: RNA from virus irradiated with compound
Description: An immunofluorescence assay was also employed to detect the presence of SINV capsid protein newly translated from the irradiated viral genomic RNA. For these experiments the virus solutions had to be 10 log10 pfu/mL, which is a virus concentration 3 orders of magnitude higher than that used in the previous experiments. Also, the DPPZPHEN solutions had to be prepared in DMSO to maintain the ratio of drug to virus as in the previous experiments. […] SINV RNA from virus that had been either incubated in the dark or irradiated with DPPZPHEN was isolated and transfected into baby hamster kidney cells as described above. Following electroporation, the cells were plated on coverslips and incubated at 37° C. for 12 hours. The cells on the coverslips were then fixed with methanol for 15 minutes and washed twice with 1×PBS buffer. They were then incubated with anti-CP (SINV) polyclonal antibody (Owen et al., J. Virol., 70:2757-2763 (1996)) for 45 minutes at 37° C. After washing three times with 1×PBS buffer the cells were incubated with fluorescein-5-isothiocyanate (FITC) conjugated goat anti-rabbit secondary antibody (obtained from Kirkegaard and Perry, Gaithsburg, Md.) at 37° C. for 45 minutes. […] They were viewed under a Nikon Eclipse TE200 with a TE-FM Epi-fluorescence attachment.

[2] = system: M109 cells; assay: Phototoxicity to M109 tumor cells, MTT assay; format: cell-based, mouse; conditions: dark, zero time point
Description: Photolysis with Tumor Cells.
Procedures for cell maintenance, cell plating, drug incubation, photolysis and MTT assay are all same as that used for the KB cell lines. A small amount of dark toxicity was observed (about 15%). A considerable amount of killing occurs with light alone after 30 and 40 minutes of irradiation (FIG. 10).

[3] = system: SINV genomic RNA; assay: Infectivity of genome RNA from treated SINV transfected into BHK cells, plaque assay; format: cell-based, Sindbis virus; conditions: irradiated 60 minutes, >330 nm
Description: Photolysis with SINV. DPPZPHEN/SINV solutions were prepared by adding a 0.3 mL aliquot of a 600 μM DPPZPHEN stock solution in PBS to 3 mL of purified virus at a concentration of 7-8 log10 pfu/mL and bringing the total volume to 4 mL. The DPPZPHEN/SINV solutions were incubated for 2 hours prior to irradiation, following which 3 mL of the solution was irradiated in quartz cuvettes with 355 nm light under a constant stream of nitrogen with stirring Aliquots of 100 μL were withdrawn over time and analyzed for virus infectivity. The inactivation rate constant was calculated using simple hit theory (Hiatt, Bacteriol. Rev., 28:150-163 (1964); Houghtaling et al., Photochem. Photobiol., 71:20-28 (2000)). For the studies measuring infectivity of genome RNA, a 6.9 μL aliquot of 0.623 M DPPZPHEN stock solution in DMSO was added to a 100 μL of TE12 wild type […] solution (10 log10 pfu/mL) to obtain a 40 mM DPPZPHEN/virus solution. Aliquots of 50 μL were placed into 250 μL inserts, incubated for 2 hours, and either kept in the dark or irradiated for 60 minutes with light >330 nm. At the completion of the experiment all the samples were diluted with 6 mL 1×PBS buffer and precipitated for 2 hours at 4° C. with 10% PEG+NaCl (200 mM). […]

[4] = system: φX-174 plasmid DNA; assay: Photonicking of φX-174 plasmid DNA, gel electrophoresis; format: biochemical
Description: Photolysis with φX-174 Plasmid DNA. Metal complex solutions (with or without quenchers) were saturated with oxygen or argon prior to irradiation. The solutions were further degassed after being mixed with the plasmid. The final solution concentrations were: DPPZPHEN ([…]), φX-174 plasmid DNA (205 μM in base pairs), superoxide dismutase (25 μg/mL), 2-propanol (0.5 M), mannitol (6.25 mM), histidine (8 mM).
Experiments were conducted as described in Example X to evaluate the amount photonicking that occurred in the dark and upon exposure to light for 37TMBP, 56TMBP, OCTBP, BISNMe2, TMOBP, TIOBP, TPBP, BISTAP and BISDPPZ.

Structure (SMILES): [Cl-].[Cl][Rh+]12([Cl])([N]3C=CC=c4ccc5c(c43)[N]1C=CC=5)[N]1C=CC=c3c1c1c(c4nc5ccccc5nc34)=CC=C[N]12 [DPPZPHEN, cis-dichloro(dipyrido[3,2a-2′3′c]phenazine)(1,10-phenantroline) rhodium(III) chloride]
- SINV capsid protein (CP) in transfected BHK cells [1]: CP was not observed
- cell toxicity in the absence of light [2]: no appreciable degree of cell toxicity
- plaque formation in cells that received RNA from virus irradiated with compound [3]: no plaque formation
- frank nicks / nicking of φX-174 supercoiled plasmid DNA upon irradiation ([4]; 311 nm irradiation, Example VIII): light dose dependent
- photonicking of φX-174 plasmid DNA ([4]; Example IX, dark and upon exposure to light): found to photonick
- protection of the DNA from photonicking by ROS quenchers or argon ([4]; oxygen-saturated solutions with quenchers, and under argon, relative to buffered control): no significant level of protection
